Measurements from patent US7517889B2, “2,6-substituted-4-monosubstitutedamino-pyrimidine as prostaglandin D2 receptor antagonists” (Aventis Pharmaceuticals, Inc., priority 2004, dated 2009).
Counter-ions that a name gives are not always drawn.

Molecular target: T1, DP receptor (Homo sapiens, UniProt Q13258)
T1 construct: the human cell line LS174T, which expresses the endogenous DP receptor; endogenous in cells; host or cells: LS174T human cell line
T1 sequence (Q13258 1-359): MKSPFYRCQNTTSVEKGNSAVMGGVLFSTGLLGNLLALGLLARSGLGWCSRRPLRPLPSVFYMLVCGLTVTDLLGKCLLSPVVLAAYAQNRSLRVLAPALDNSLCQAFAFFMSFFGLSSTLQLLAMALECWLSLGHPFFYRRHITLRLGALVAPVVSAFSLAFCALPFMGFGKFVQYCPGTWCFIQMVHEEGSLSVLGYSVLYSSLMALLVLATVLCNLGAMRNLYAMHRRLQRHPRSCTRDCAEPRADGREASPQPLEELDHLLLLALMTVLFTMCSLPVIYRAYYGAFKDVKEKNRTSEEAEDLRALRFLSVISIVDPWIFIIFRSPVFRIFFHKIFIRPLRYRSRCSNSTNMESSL
Experiment: SPA cAMP assay in human LS174 T cells (human DP functional assay)
Format: cell-based
Conditions: inhibition of PGD2 (15 nM final) stimulated cAMP, LS174T cells expressing endogenous DP receptor
In short: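 LS174T cells with endogenous DP receptor, 45,000/well seeded overnight, exposed to compounds at 11 points for 15 min at 37 °C in buffer containing IBMX, with PGD2 stimulation.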

Compared with COc1ccc(CCNc2cc(-c3cccc(C(=O)O)c3)nc(SC)n2)cc1OC [Example 16(b), 3-{6-[2-(3,4-Dimethoxy-phenyl)-ethylamino]-2-methylsulfanyl-pyrimidin-4-yl}-benzoic acid], COc1nc(NCCc2ccc(F)cc2F)cc(-c2cccc(C(=O)O)c2)n1 [Example 7, 3-{6-[2-(2,4-Difluoro-phenyl)-ethylamino]-2-methoxy-pyrimidin-4-yl}-benzoic acid] is 300-fold lower in IC50: 243 nM for the first, 0.8 nM for the second. The second is the more potent here.

Compared with CCOc1nc(NCCc2ccc(OC)c(OC)c2)cc(-c2ccc(OC)c(OC)c2)n1 [Example 17(b), [6-(3,4-Dimethoxy-phenyl)-2-ethoxy-pyrimidin-4-yl]-[2-(3,4-dimethoxy-phenyl)-ethyl]-amine], COc1nc(NCCc2ccc(OC)c(OC)c2)cc(-c2ccco2)n1 [Example 35(d), [2-(3,4-Dimethoxy-phenyl)-ethyl]-(6-furan-2-yl-2-methoxy-pyrimidin-4-yl)-amine] is 2.6-fold lower in IC50: 655 nM for the first, 256 nM for the second.

Compared with COc1nc(NCCc2ccc(Cl)cc2Cl)cc(-c2cccc(C(C)(C)C(=O)NC3CCOCC3)c2)n1 [Example 95(d), 2-(3-{6-[2-(2,4-Dichloro-phenyl)-ethylamino]-2-methoxy-pyrimidin-4-yl}-phenyl)-N-(tetrahydro-pyran-4-yl)-isobutyramide], COc1nc(NCCc2ccc(Cl)cc2Cl)cc(-c2cccc(C3(C(=O)NS(C)(=O)=O)CCOCC3)c2)n1 [Example 80(b), N-[4-(3-{6-[2-(2,4-Dichloro-phenyl)-ethylamino]-2-methoxy-pyrimidin-4-yl}-phenyl)-tetrahydro-pyran-4-carbonyl]-methanesulfonamide] is lower in IC50: 278 nM for the first, < 1 nM for the second.

Going from COc1cccc(-c2cc(NCCc3cccs3)nc(OC)n2)c1 [Example 43(e), [2-Methoxy-6-(3-methoxy-phenyl)-pyrimidin-4-yl]-(2-thiophen-2-yl-ethyl)-amine hydrochloride] to COc1cccc(-c2cc(NCCc3ccc([N+](=O)[O-])cc3)nc(OC)n2)c1 [Example 43(b), [2-Methoxy-6-(3-methoxy-phenyl)-pyrimidin-4-yl]-[2-(4-nitro-phenyl)-ethyl]-amine], the IC50 falls from 9.7 nM to 0.9 nM (11-fold). The second is the more potent here.

COc1ccc(CCNc2cc(-c3cccc(C(C)=O)c3)nc(OC)n2)cc1 [Example 35(h), 1-(3-{2-Methoxy-6-[2-(4-methoxy-phenyl)-ethylamino]-pyrimidin-4-yl}-phenyl)-ethanone] and COc1ccc(CCNc2cc(-c3ccc(C(C)=O)s3)nc(OC)n2)cc1 [Example 35(m), 1-(5-{2-Methoxy-6-[2-(4-methoxy-phenyl)-ethylamino]-pyrimidin-4-yl}-thiophen-2-yl)-ethanone] are within 1.5-fold of each other in IC50: 5 nM for the first, 3.8 nM for the second.

Going from COc1nc(NCCc2ccc(OC(F)(F)F)cc2)cc(-c2cccc(N)c2)n1 [Example 5, [6-(3-amino-phenyl)-2-methoxy-pyrimidin-4-yl]-[2-(4-trifluoromethoxy-phenyl)-ethyl]-amine] to COc1ccc(CCNc2cc(-c3ccc(F)c(CN)c3)nc(OC)n2)cc1 [Example 27, [6-(3-Aminomethyl-4-fluoro-phenyl)-2-methoxy-pyrimidin-4-yl]-[2-(4-methoxy-phenyl)-ethyl]-amine hydrochloride], the IC50 rises from 9.6 nM to 41 nM (4.3-fold). The first is the more potent here.

COc1ccc(CCNc2cc(-c3ccc(C=O)s3)nc(OC)n2)cc1 [Example 8(b), 5-{2-methoxy-6-[2-(4-methoxy-phenyl)-ethylamino]-pyrimidin-4-yl}-thiophene-2-carbaldehyde] and COc1ccc(CCNc2cc(-c3ccc(CO)s3)nc(OC)n2)cc1 [Example 9(a), (5-{2-Methoxy-6-[2-(4-methoxy-phenyl)-ethylamino]-pyrimidin-4-yl}-thiophen-2-yl)-methanol] are within 1.5-fold of each other in IC50: 0.6 nM for the first, 0.55 nM for the second.

COc1nc(NCCc2ccc(C(F)(F)F)cc2F)cc(-c2ccc3[nH]cc(CC(=O)O)c3c2)n1 [Example 52, (5-{6-[2-(2-Fluoro-4-trifluoromethyl-phenyl)-ethylamino]-2-methoxy-pyrimidin-4-yl}-1H-indol-3-yl)-acetic acid] and COc1nc(NCCc2ccc(Cl)cc2Cl)cc(-c2cc(C(C)(C)C(=O)O)ccc2F)n1 [Example 99, 2-(3-{6-[2-(2,4-Dichloro-phenyl)-ethylamino]-2-methoxy-pyrimidin-4-yl}-4-fluoro-phenyl)-2-methyl-propionic acid hydrochloride] are within 1.5-fold of each other in IC50: 0.4 nM for the first, 0.5 nM for the second.

First: COc1nc(NCCc2ccc(OC)c(OC)c2)cc(-c2ccc(-c3ccccc3)cc2)n1 [Example 35(e), (6-Biphenyl-4-yl-2-methoxy-pyrimidin-4-yl)-[2-(3,4-dimethoxy-phenyl)-ethyl]-amine]
Second: COc1ccc(CCNc2cc(-c3cccc(-c4nnc(C)[nH]4)c3)nc(OC)n2)cc1 [Example 37, {2-Methoxy-6-[3-(5-methyl-2H-[1,2,4]triazol-3-yl)-phenyl]-pyrimidin-4-yl}-[2-(4-methoxy-phenyl)-ethyl]-amine]
The IC50 of the first is 100-fold higher: 369 nM for the first, 3.7 nM for the second. The second is the more potent here.

Going from COc1ccc(CCNc2cc(-c3ccc(OC)nc3)nc(OC)n2)cc1 [Example 35(o), [2-Methoxy-6-(6-methoxy-pyridin-3-yl)-pyrimidin-4-yl]-[12-(4-methoxy-phenyl)-ethyl]-amine] to COc1ccc(CCNc2cc(-c3ccncc3)nc(OC)n2)cc1 [Example 35(q), [2-(4-Methoxy-phenyl)-ethyl]-(2-methoxy-6-pyridin-4-yl-pyrimidin-4-yl)-amine], the IC50 rises from 1.7 nM to 8 nM (4.7-fold).

Going from COc1nc(NCCc2c(F)cccc2Cl)cc(-c2ccc(=O)n(CC(=O)O)c2)n1 [Example 23(c), (5-{6-[2-(2-Chloro-6-fluoro-phenyl)-ethylamino]-2-methoxy-pyrimidin-4-yl}-2-oxo-2H-pyridin-1-yl)-acetic acid] to COc1nc(NCCc2c(F)cccc2Cl)cc(-c2cccc(Cc3noc(=O)[nH]3)c2)n1 [Example 34(b), 3-(3-{6-[2-(2-Chloro-6-fluoro-phenyl)-ethylamino]-2-methoxy-pyrimidin-4-yl}-benzyl)-4H-[1,2,4]oxadiazol-5-one hydrochloride], the IC50 rises from 0.3 nM to 1 nM (3.3-fold). The first is the more potent here.

Compared with COc1ccc(CCNc2cc(-c3cnc4ccccc4c3)nc(OC)n2)cc1 [Example 10(b), [2-(4-Methoxy-phenyl)-ethyl]-(2-methoxy-6-quinolin-3-yl-pyrimidin-4-yl)-amine], COc1ccc(CCNc2cc(-c3cccc4cnccc34)nc(OC)n2)cc1 [Example 8(g), (6-Isoquinolin-5-yl-2-methoxy-pyrimidin-4-yl)-[2-(4-methoxy-phenyl)-ethyl]-amine] is 91-fold higher in IC50: 0.7 nM for the first, 64 nM for the second. The first is the more potent here.

Compared with COc1ccc(CCNc2cc(-c3ccsc3CO)nc(OC)n2)cc1 [Example 9(b), (3-{2-Methoxy-6-[2-(4-methoxy-phenyl)-ethylamino]-pyrimidin-4-yl}-thiophen-2-yl)-methanol], COc1ccc(CCNc2cc(-c3ccc(/C(C)=N\O)s3)nc(OC)n2)cc1 [Example 26(e), 1-(5-{2-Methoxy-6-[2-(4-methoxy-phenyl)-ethylamino]-pyrimidin-4-yl}-thiophen-2-yl)-ethanone oxime] is 2.1-fold lower in IC50: 1.7 nM for the first, 0.8 nM for the second. The second is the more potent here.

First: CCOC(=O)c1cc(-c2cc(NCCc3ccc(OC)cc3)nc(OC)n2)ccc1Cl [Example 35(z), 2-Chloro-5-{2-methoxy-6-[2-(4-methoxy-phenyl)-ethylamino]-pyrimidin-4-yl}-benzoic acid ethyl ester]
Second: COc1ccc(CCNc2cc(-c3cccc(-c4nc(C)no4)c3)nc(OC)n2)cc1 [Example 36, {2-Methoxy-6-[3-(3-methyl-[1,2,4]oxadiazol-5-yl)-phenyl]-pyrimidin-4-yl}-[2-(4-methoxy-phenyl)-ethyl]-amine]
The IC50 of the first is 12-fold higher: 32 nM for the first, 2.6 nM for the second.

COc1ccc(CCNc2cc(-c3c(C)noc3C)nc(OC)n2)cc1 [Example 8(d), [6-(3,5-Dimethyl-isoxazol-4-yl)-2-methoxy-pyrimidin-4-yl]-[2-(4-methoxy-phenyl)-ethyl]-amine] and COc1ccc(CCNc2cc(-c3ccccc3NS(C)(=O)=O)nc(OC)n2)cc1 [Example 10(d), N-(2-{2-Methoxy-6-[2-(4-methoxy-phenyl)-ethylamino]-pyrimidin-4-yl}-phenyl)-methanesulfonamide] are within 1.5-fold of each other in IC50: 1.9 nM for the first, 2 nM for the second.

Going from COc1nc(NCCc2ccc(Cl)cc2Cl)cc(N2CCCC(C(=O)O)C2)n1 (centres unmarked) [Example 73, 1-{6-[2-(2,4-Dichloro-phenyl)-ethylamino]-2-methoxy-pyrimidin-4-yl}-piperidine-3-carboxylic acid] to COc1nc(NCCc2ccc(Cl)cc2Cl)cc(N2CCC(C(=O)O)CC2)n1 [Example 97, 1-{6-[2-(2,4-Dichloro-phenyl)-ethylamino]-2-methoxy-pyrimidin-4-yl}-piperidine-4-carboxylic acid], the IC50 rises from 0.8 nM to 7 nM (8.8-fold). The first is the more potent here.

First: COc1ccc(CCNc2cc(-c3cccc(CNCCc4ccc(O)cc4)c3)nc(OC)n2)cc1 [Example 13(c), 4-[2-(3-{2-Methoxy-6-[2-(4-methoxy-phenyl)-ethylamino]-pyrimidin-4-yl}-benzylamino)-ethyl]-phenol hydrochloride]
Second: COc1ccc(CNc2cc(-c3cccc(OC)c3)nc(OC)n2)cc1 [Example 43(k), (4-Methoxy-benzyl-[2-methoxy-6-(3-methoxy-phenyl)-pyrimidin-4-yl]-amine hydrochloride]
The IC50 of the first is 110-fold lower: 10 nM for the first, 1070 nM for the second. The first is the more potent here.

With CCS(=O)(=O)NC(=O)C(F)(F)c1cccc(-c2cc(NCCc3ccc(Cl)cc3Cl)nc(OC)n2)c1 [Example 81(b), Ethanesulfonic acid [2-(3-{6-[2-(2,4-dichloro-phenyl)-ethylamino]-2-methoxy-pyrimidin-4-yl}-phenyl)-2,2-difluoro-acetyl]-amide] the IC50 was 0.1 nM.
